According to patent US20140030209A1, “TOPICAL LIQUID AGENT FOR THE TREATMENT OF DERMATOPHYTOSIS” (MEIJI SEIKA PHARMA CO., LTD., priority 2012, published 2014):

What was measured:
[1] = test system: Trichophyton mentagrophytes (T. mentagrophytes) ATCC18748; test: Antifungal activity against dermatophytes (MIC, WST8); format: cell-based; settings: 80% growth inhibiting concentration; RPMI1640/MOPS, 28° C., 3 days, 1% DMSO
Protocol: (§1) Measurement of the antifungal activity against dermatophytes of the compound of the formula (I) contained in the topical liquid agent of the present invention was carried out by the following method. The compound to be evaluated was used by dissolving in dimethyl sulfoxide (DMSO). As a medium for the test, RPMI1640 medium containing 0.165M of 3-morpholinopropanesulfonic acid (MOPS) was used. As fungi to be tested, Trichophyton mentagrophytes (T. mentagrophytes) ATCC18748 or Trichophyton rubrum (T. rubrum) ATCC10218 was used. The testing fungal strain was apportioned to […] with a concentration of 1×10^4 conidia/ml, mixed with a compound to be evaluated on a 96-well half area plate so that the DMSO concentration became 1%, and cultured at a cultivation temperature of 28° C. for 3 days (T. mentagrophytes) or 4 days (T. rubrum). Thereafter, 5 μl of Cell Counting Kit 8 (WST8) was added thereto, and absorbances at 450 nm and 595 nm were measured to use these as background values. Thereafter, these were cultivated at 28° C. for 5 hours (T. mentagrophytes) or overnight (T. rubrum) to cause a color, and absorbances at 450 nm and 595 nm were measured again. A growth inhibiting rate was calculated from the difference to the background values, and a 80% growth inhibiting concentration was made an MIC value […].

[2] = test system: Trichophyton rubrum (T. rubrum) ATCC10218; test: as above; format: cell-based; settings: 80% growth inhibiting concentration; RPMI1640/MOPS, 28° C., 4 days, 1% DMSO
Protocol: as §1

Compound: CCc1c(C)nn(-c2ccccc2O)c1C [compound 17]
- MIC (T. mentagrophytes) [1]: A (≦1 μg/ml)
- MIC (T. rubrum) [2]: A (≦2 μg/ml)

Compound: Cc1nn(-c2ccc(C(N)=O)cc2O)c(C)c1Cl [compound 42]
- MIC (T. rubrum) [2]: D (>32 to 64 μg/ml)

Compound: Cc1ccc(O)c(-n2nc(C)cc2C)c1 [compound 49]
- MIC (T. rubrum) [2]: D (>32 to 64 μg/ml)

Compound: Cc1cc(C)n(-c2ccc(F)cc2O)n1 [compound 25]
- MIC (T. rubrum) [2]: B (4 to 16 μg/ml)

Compound: Cc1ccc(-n2nc(C)cc2C)c(O)c1 [compound 44]
- MIC (T. mentagrophytes) [1]: A (≦1 μg/ml)
- MIC (T. rubrum) [2]: A (≦2 μg/ml)

Compound: Cc1nn(-c2ccc(O)cc2O)c(C)c1Cl [compound 63]
- MIC (T. mentagrophytes) [1]: A (≦1 μg/ml)
- MIC (T. rubrum) [2]: A (≦2 μg/ml)

Compound: Cc1cc(C)n(-c2ccccc2O)n1 [compound 1]
- MIC (T. rubrum) [2]: B (4 to 16 μg/ml)

Compound: Cc1cc(C)n(-c2c(N)cccc2O)n1 [compound 36]
- MIC (T. rubrum) [2]: D (>32 to 64 μg/ml)

Compound: CCCCc1c(C)nn(-c2ccccc2O)c1C [compound 24]
- MIC (T. mentagrophytes) [1]: A (≦1 μg/ml)
- MIC (T. rubrum) [2]: C (16 to 32 μg/ml)

Compound: Cc1cc(C)n(-c2cccc(C)c2O)n1 [compound 51]
- MIC (T. rubrum) [2]: D (>32 to 64 μg/ml)

Compound: Cc1cc(C)n(-c2ccc(CO)cc2O)n1 [compound 47]
- MIC (T. rubrum) [2]: B (4 to 16 μg/ml)

Compound: Cc1cc(C)n(-c2ccc(N)cc2O)n1 [compound 31]
- MIC (T. rubrum) [2]: B (4 to 16 μg/ml)

Compound: Cc1nn(-c2cc(F)ccc2O)c(C)c1C [compound 20]
- MIC (T. rubrum) [2]: D (>32 to 64 μg/ml)

Compound: CC(=O)Oc1ccc(-n2nc(C)c(Cl)c2C)c(O)c1 [compound 58]
- MIC (T. rubrum) [2]: A (≦2 μg/ml)

Compound: Cc1nn(-c2ccc(Br)cc2O)c(C)c1C [compound 56]
- MIC (T. mentagrophytes) [1]: A (≦1 μg/ml)
- MIC (T. rubrum) [2]: A (≦2 μg/ml)

Compound: Cc1nn(-c2cc(O)ccc2O)c(C)c1Cl [compound 19]
- MIC (T. rubrum) [2]: C (16 to 32 μg/ml)

Compound: COC(=O)CCc1c(C)nn(-c2ccccc2O)c1C [compound 23]
- MIC (T. rubrum) [2]: D (>32 to 64 μg/ml)

Compound: Cc1cc(C)n(-c2c(C)cccc2O)n1 [compound 46]
- MIC (T. rubrum) [2]: D (>32 to 64 μg/ml)

Compound: Cc1cc(C)n(-c2ccc(Br)cc2O)n1 [compound 54]
- MIC (T. mentagrophytes) [1]: A (≦1 μg/ml)
- MIC (T. rubrum) [2]: A (≦2 μg/ml)

Compound: CCc1cc(CC)n(-c2ccccc2O)n1 [compound 14]
- MIC (T. rubrum) [2]: B (4 to 16 μg/ml)

Compound: Cc1nn(-c2ccc([N+](=O)[O-])cc2O)c(C)c1C [compound 32]
- MIC (T. rubrum) [2]: B (4 to 16 μg/ml)

Compound: Cc1cc(C)n(-c2ccc(O)cc2O)n1 [compound 33]
- MIC (T. rubrum) [2]: A (≦2 μg/ml)

Compound: CCc1ccc(-n2nc(C)cc2C)c(O)c1 [compound 52]
- MIC (T. mentagrophytes) [1]: A (≦1 μg/ml)
- MIC (T. rubrum) [2]: A (≦2 μg/ml)

Compound: Cc1nn(-c2ccccc2O)c(C)c1F [compound 53]
- MIC (T. rubrum) [2]: B (4 to 16 μg/ml)

Compound: CC(=O)Oc1ccc(-n2nc(C)cc2C)c(O)c1 [compound 57]
- MIC (T. rubrum) [2]: B (4 to 16 μg/ml)

Compound: CC(=O)Oc1ccc(-n2nc(C)c(C)c2C)c(O)c1 [compound 59]
- MIC (T. rubrum) [2]: B (4 to 16 μg/ml)

Compound: Cc1nn(-c2ccc(Br)cc2O)c(C)c1Cl [compound 55]
- MIC (T. mentagrophytes) [1]: A (≦1 μg/ml)
- MIC (T. rubrum) [2]: A (≦2 μg/ml)

Compound: Cc1nn(-c2ccc(C(N)=O)cc2O)c(C)c1C [compound 41]
- MIC (T. rubrum) [2]: D (>32 to 64 μg/ml)

Compound: Cc1nn(-c2ccccc2O)c(C)c1C [compound 9]
- MIC (T. mentagrophytes) [1]: A (≦1 μg/ml)
- MIC (T. rubrum) [2]: A (≦2 μg/ml)

Compound: CNc1ccc(-n2nc(C)cc2C)c(O)c1 [compound 48]
- MIC (T. rubrum) [2]: B (4 to 16 μg/ml)

Compound: Cc1nn(-c2ccc(Cl)cc2O)c(C)c1C [compound 30]
- MIC (T. mentagrophytes) [1]: A (≦1 μg/ml)
- MIC (T. rubrum) [2]: A (≦2 μg/ml)

Compound: Cc1nn(-c2ccc(C(=O)O)cc2O)c(C)c1C [compound 40]
- MIC (T. rubrum) [2]: D (>32 to 64 μg/ml)

Compound: COc1ccc(-n2nc(C)cc2C)c(O)c1 [compound 45]
- MIC (T. mentagrophytes) [1]: A (≦1 μg/ml)
- MIC (T. rubrum) [2]: A (≦2 μg/ml)

Compound: Cc1cc(C)n(-c2ccc(C(F)(F)F)cc2O)n1 [compound 50]
- MIC (T. rubrum) [2]: B (4 to 16 μg/ml)

Compound: Cc1cc(C)n(-c2ccc(C(N)=O)cc2O)n1 [compound 39]
- MIC (T. rubrum) [2]: C (16 to 32 μg/ml)

Compound: Cc1cc(C)n(-c2cc(Cl)ccc2O)n1 [compound 11]
- MIC (T. rubrum) [2]: D (>32 to 64 μg/ml)

Compound: Cc1nn(-c2ccc(F)cc2O)c(C)c1Cl [compound 21]
- MIC (T. mentagrophytes) [1]: A (≦1 μg/ml)
- MIC (T. rubrum) [2]: B (4 to 16 μg/ml)

Compound: COC(=O)c1ccc(-n2nc(C)cc2C)c(O)c1 [compound 35]
- MIC (T. rubrum) [2]: C (16 to 32 μg/ml)

Compound: CCOC(=O)c1c(C)nn(-c2ccccc2O)c1C [compound 22]
- MIC (T. rubrum) [2]: D (>32 to 64 μg/ml)

Compound: Cc1cc(C)n(-c2ccc([N+](=O)[O-])cc2O)n1 [compound 28]
- MIC (T. rubrum) [2]: C (16 to 32 μg/ml)

Compound: Cc1cc(C)n(-c2ccc(Cl)cc2O)n1 [compound 26]
- MIC (T. mentagrophytes) [1]: A (≦1 μg/ml)
- MIC (T. rubrum) [2]: A (≦2 μg/ml)

Compound: Cc1nn(-c2ccc(F)cc2O)c(C)c1C [compound 18]
- MIC (T. rubrum) [2]: B (4 to 16 μg/ml)

Compound: Cc1cc(C(F)(F)F)nn1-c1ccccc1O [compound 5]
- MIC (T. rubrum) [2]: D (>32 to 64 μg/ml)

Compound: Cc1nn(-c2ccc(N)cc2O)c(C)c1C [compound 34]
- MIC (T. rubrum) [2]: B (4 to 16 μg/ml)

Compound: Cc1cc(C)n(-c2ccc(C(=O)N(C)C)cc2O)n1 [compound 38]
- MIC (T. rubrum) [2]: B (4 to 16 μg/ml)

Compound: Cc1cc(C)n(-c2c(O)cccc2O)n1 [compound 43]
- MIC (T. rubrum) [2]: D (>32 to 64 μg/ml)

Compound: Cc1cc(C)n(-c2ccc(C(=O)O)cc2O)n1 [compound 37]
- MIC (T. rubrum) [2]: B (4 to 16 μg/ml)

Compound: Cc1cc(C)n(-c2cccc(O)c2O)n1 [compound 15]
- MIC (T. rubrum) [2]: C (16 to 32 μg/ml)

Compound: Cc1nn(-c2ccccc2O)c(C)c1Cl [compound 13]
- MIC (T. mentagrophytes) [1]: A (≦1 μg/ml)
- MIC (T. rubrum) [2]: B (4 to 16 μg/ml)
